{"source": "ChEMBL document CHEMBL5143537", "about": "“Quinazoline-based hydroxamic acid derivatives as dual histone methylation and deacetylation inhibitors for potential anticancer agents” (Bioorg Med Chem, 2022)", "key": {"HepG2 [1]": {"tested_on": "HepG2", "experiment": "Induction of apoptosis in human HepG2 cells assessed as necrotic cells at 5 uM measured after 48 hrs by Annexin V-FITC/propidium iodide staining based flow cytometry (reference value: 0%)", "format": "functional"}, "HepG2 [2]": {"tested_on": "HepG2", "experiment": "Inhibition of colony formation in human HepG2 cells measured after 24 hrs", "format": "functional, cell-based", "conditions": "dose 1.25-20 µM, DDE = dose-dependent effect"}, "HepG2 [3]": {"tested_on": "HepG2", "experiment": "Induction of apoptosis in human HepG2 cells assessed as increase in cleaved PARP expression at 1.25 to 20 uM measured after 48 hrs by Western blot analysis", "format": "functional, cell-based", "conditions": "dose 1.25-20 µM"}, "HepG2 [4]": {"tested_on": "HepG2", "experiment": "Induction of apoptosis in human HepG2 cells assessed as late apoptotic cells at 5 uM measured after 48 hrs by Annexin V-FITC/propidium iodide staining based flow cytometry (reference value: 4.55%)", "format": "functional"}, "HepG2 [5]": {"tested_on": "HepG2", "experiment": "Induction of apoptosis in human HepG2 cells assessed as late apoptotic cells at 2.5 uM measured after 48 hrs by Annexin V-FITC/propidium iodide staining based flow cytometry (reference value: 4.55%)", "format": "functional"}, "HepG2 [6]": {"tested_on": "HepG2", "experiment": "Induction of apoptosis in human HepG2 cells assessed as viable cells at 1.25 uM measured after 48 hrs by Annexin V-FITC/propidium iodide staining based flow cytometry (reference value: 88.58%)", "format": "functional", "conditions": "read-out: Activity"}, "HepG2 [7]": {"tested_on": "HepG2", "experiment": "Antiproliferative activity against human HepG2 cells measured after 72 hrs by MTT assay", "format": "functional, cell-based", "conditions": "HepG2, 72 h"}, "[8]": {"experiment": "Intrinsic clearance in rat liver microsomes at 1 uM by LC-MS/MS analysis", "format": "ADME, Microsome", "conditions": "read-out: CLH"}, "[9]": {"molecular_target": "Histone deacetylase (Homo sapiens) (UniProt Q13547+O15379+Q9UBN7+Q92769+Q9UQL6+Q8WUI4+Q9BY41+Q96DB2+P56524+Q9UKV0+Q969S8)", "experiment": "Inhibition of HDAC in human HepG2 cells assessed as increase in Ac-H3K9 expression at 1.25 to 20 uM measured after 24 hrs by Western blot analysis", "format": "cell-based", "conditions": "dose 1.25-20 µM"}, "[10]": {"experiment": "Cytotoxicity against human HL7702 cells measured after 72 hrs by MTT assay", "conditions": "HL7702 (L02) cells"}, "HepG2 [11]": {"tested_on": "HepG2", "experiment": "Cell cycle arrest in human HepG2 cells assessed as accumulation at S phase at 10 uM measured after 48 hrs by propidium iodide staining based flow cytometry (reference value: 32.39%)", "format": "functional"}, "HepG2 [12]": {"tested_on": "HepG2", "experiment": "Induction of apoptosis in human HepG2 cells assessed as early apoptotic cells at 2.5 uM measured after 48 hrs by Annexin V-FITC/propidium iodide staining based flow cytometry (reference value: 6.87%)", "format": "functional"}, "HCT-116": {"tested_on": "HCT-116", "experiment": "Antiproliferative activity against human HCT-116 cells measured after 72 hrs by MTT assay", "format": "functional, cell-based", "conditions": "HCT-116, 72 h"}, "[13]": {"molecular_target": "T1, Histone-lysine N-methyltransferase EHMT1 (Homo sapiens) (UniProt Q9H9B1)", "T1 sequence (whole entry)": "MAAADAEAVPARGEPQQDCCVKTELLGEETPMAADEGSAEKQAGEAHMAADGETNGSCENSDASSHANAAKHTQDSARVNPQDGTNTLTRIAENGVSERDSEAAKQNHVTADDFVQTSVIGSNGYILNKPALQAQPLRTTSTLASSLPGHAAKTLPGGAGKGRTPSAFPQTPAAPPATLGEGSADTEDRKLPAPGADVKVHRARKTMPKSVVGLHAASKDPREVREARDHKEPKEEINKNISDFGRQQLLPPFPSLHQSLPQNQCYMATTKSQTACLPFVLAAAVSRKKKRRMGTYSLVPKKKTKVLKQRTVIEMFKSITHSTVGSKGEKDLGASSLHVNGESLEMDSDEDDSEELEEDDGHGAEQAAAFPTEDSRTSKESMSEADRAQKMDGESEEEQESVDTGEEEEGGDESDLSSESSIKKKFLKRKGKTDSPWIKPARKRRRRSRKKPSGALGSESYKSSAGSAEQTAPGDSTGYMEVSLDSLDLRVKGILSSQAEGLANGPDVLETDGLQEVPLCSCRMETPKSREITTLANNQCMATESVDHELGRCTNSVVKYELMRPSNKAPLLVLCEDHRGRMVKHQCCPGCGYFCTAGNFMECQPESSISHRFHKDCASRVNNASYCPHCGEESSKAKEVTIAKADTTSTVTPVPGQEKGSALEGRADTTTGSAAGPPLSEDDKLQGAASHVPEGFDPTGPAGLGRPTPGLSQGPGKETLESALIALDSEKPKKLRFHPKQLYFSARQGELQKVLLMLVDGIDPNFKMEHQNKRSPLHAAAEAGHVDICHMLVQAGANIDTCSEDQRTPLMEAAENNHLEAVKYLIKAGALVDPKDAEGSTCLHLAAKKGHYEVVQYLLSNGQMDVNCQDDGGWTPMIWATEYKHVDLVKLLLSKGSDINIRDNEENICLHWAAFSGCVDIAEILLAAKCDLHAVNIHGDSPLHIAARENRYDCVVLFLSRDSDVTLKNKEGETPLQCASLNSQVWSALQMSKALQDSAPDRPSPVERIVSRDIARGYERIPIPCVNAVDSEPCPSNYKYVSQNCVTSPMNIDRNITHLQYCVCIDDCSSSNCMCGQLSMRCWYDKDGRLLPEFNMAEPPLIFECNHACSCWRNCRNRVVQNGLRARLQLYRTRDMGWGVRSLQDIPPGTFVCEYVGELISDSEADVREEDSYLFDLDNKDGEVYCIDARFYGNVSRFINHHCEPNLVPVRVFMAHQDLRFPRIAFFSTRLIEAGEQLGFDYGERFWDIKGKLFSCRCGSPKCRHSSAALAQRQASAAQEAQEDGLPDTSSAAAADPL", "experiment": "Inhibition of GLP in human HepG2 cells assessed as reduction in H3K9Me2 expression at 1.25 to 20 uM measured after 24 hrs by Western blot analysis", "format": "cell-based", "conditions": "dose 1.25-20 µM"}, "[14]": {"experiment": "Metabolic stability in rat liver microsomes assessed as parent compound remaining at 1 uM measured after 15 mins by LC-MS/MS analysis", "format": "ADME, Microsome", "conditions": "read-out: Stability"}, "HepG2 [15]": {"tested_on": "HepG2", "experiment": "Cell cycle arrest in human HepG2 cells assessed as increase in p21 expression measured after 24 hrs by Western blot analysis", "format": "functional, cell-based", "conditions": "dose 1.25-20 µM, DDE = dose-dependent effect"}, "HepG2 [16]": {"tested_on": "HepG2", "experiment": "Induction of apoptosis in human HepG2 cells assessed as viable cells at 2.5 uM measured after 48 hrs by Annexin V-FITC/propidium iodide staining based flow cytometry (reference value: 88.58%)", "format": "functional", "conditions": "read-out: Activity"}, "[17]": {"experiment": "Metabolic stability in rat liver microsomes assessed as parent compound remaining at 1 uM measured after 45 mins by LC-MS/MS analysis", "format": "ADME, Microsome", "conditions": "read-out: Stability"}, "HepG2 [18]": {"tested_on": "HepG2", "experiment": "Induction of apoptosis in human HepG2 cells assessed as early apoptotic cells at 5 uM measured after 48 hrs by Annexin V-FITC/propidium iodide staining based flow cytometry (reference value: 6.87%)", "format": "functional"}, "HepG2 [19]": {"tested_on": "HepG2", "experiment": "Antiinvasive activity against human HepG2 cells at 20 uM measured after 24 hrs by trans-well assay", "format": "functional, cell-based", "conditions": "DDE = dose-dependent effect"}, "HepG2 [20]": {"tested_on": "HepG2", "experiment": "Induction of apoptosis in human HepG2 cells assessed as late apoptotic cells at 20 uM measured after 48 hrs by Annexin V-FITC/propidium iodide staining based flow cytometry (reference value: 4.55%)", "format": "functional"}, "HT-29": {"tested_on": "HT-29", "experiment": "Antiproliferative activity against human HT-29 cells measured after 72 hrs by MTT assay", "format": "functional, cell-based", "conditions": "HT-29, 72 h"}}, "note": "The source made the active and inactive calls. No cut-off for these calls is given here."}
{"smiles": "COc1cc2nc(N3CCN(CCCCCC(=O)NO)CC3)nc(NC3CCN(Cc4ccccc4)CC3)c2cc1OC", "values": [{"measurement": "Activity", "setting": "HepG2 [1]", "result": 0, "unit": "%"}, {"measurement": "inhibition", "setting": "HepG2 [2]", "result": "Dde"}, {"measurement": "Activity", "setting": "HepG2 [3]", "result": "Active"}, {"measurement": "Activity", "setting": "HepG2 [4]", "result": 4.14, "unit": "%"}, {"measurement": "Activity", "setting": "HepG2 [5]", "result": 2.27, "unit": "%"}, {"measurement": "viability at 1.25 µM", "setting": "HepG2 [6]", "result": 88.5, "unit": "%"}, {"measurement": "IC50", "setting": "HepG2 [7]", "result": 2.74, "unit": "µM"}, {"measurement": "CLint scaled at 1 µM", "setting": "[8]", "result": 155, "unit": "mL/min/kg"}, {"measurement": "inhibition", "setting": "[9]", "result": "Active"}, {"measurement": "IC50 at 72 h", "setting": "[10]", "result": 39.8, "unit": "µM"}, {"measurement": "Activity", "setting": "HepG2 [11]", "result": 24.67, "unit": "%"}, {"measurement": "Activity", "setting": "HepG2 [12]", "result": 10.22, "unit": "%"}, {"measurement": "IC50", "setting": "HCT-116", "result": 11.1, "unit": "µM"}, {"measurement": "inhibition", "setting": "[13]", "result": "Active"}, {"measurement": "remaining at 0.25 h, 1 µM", "setting": "[14]", "result": 50.2, "unit": "%"}, {"measurement": "Activity", "setting": "HepG2 [15]", "result": "Dde"}, {"measurement": "viability at 2.5 µM", "setting": "HepG2 [16]", "result": 87.5, "unit": "%"}, {"measurement": "remaining at 0.75 h, 1 µM", "setting": "[17]", "result": 14.2, "unit": "%"}, {"measurement": "Activity", "setting": "HepG2 [18]", "result": 8.59, "unit": "%"}, {"measurement": "Activity", "setting": "HepG2 [19]", "result": "Dde"}, {"measurement": "Activity", "setting": "HepG2 [20]", "result": 17.12, "unit": "%"}, {"measurement": "IC50", "setting": "HT-29", "result": 6.99, "unit": "µM"}]}
